Reference: PubChem BioAssay (NCI)
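Following 48 hours of exposure in 96-well plates, responses at five concentrations were used to interpolate endpoints linearly. GI50 marks 50% less growth. At the TGI there is no net growth.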

Columns and labels:
Assay in all cases: NCI tumour cell line growth inhibition, 48 h
[1] = system: CAKI-1 renal
[2] = system: SF-539 CNS
[3] = system: HCT-15 colon
[4] = system: UACC-257 melanoma
[5] = system: EKVX NSCLC
[6] = system: SK-MEL-2 melanoma
[7] = system: PC-3 prostate
[8] = system: MDA-MB-435
[9] = system: HOP-62 NSCLC
[10] = system: U251 CNS
[11] = system: HCT-116 colon
[12] = system: HL-60(TB) leukemia
[13] = system: NCI-H522 lung
[14] = system: OVCAR-8 ovarian
[15] = system: OVCAR-3 ovarian
[16] = system: SN12C renal
[17] = system: SK-MEL-28 melanoma
[18] = system: 786-0 renal
[19] = system: HCC-2998 colon
[20] = system: MALME-3M melanoma
[21] = system: UO-31 renal
[22] = system: NCI-H226 lung
[23] = system: HT29 colon
[24] = system: SF-295 CNS
[25] = system: SK-MEL-5 melanoma
[26] = system: MCF7 breast
[27] = system: UACC-62 melanoma
[28] = system: KM12 colon
[29] = system: MDA-MB-231 breast
[30] = system: RPMI-8226 leukemia
[31] = system: CCRF-CEM leukemia
[32] = system: COLO 205 colon
[33] = system: A498 renal
[34] = system: SW-620 colon
[35] = system: SNB-19 CNS
[36] = system: HS 578T breast
[37] = system: MOLT-4 leukemia
[38] = system: IGROV1 ovarian
[39] = system: OVCAR-5 ovarian
[40] = system: SF-268 CNS
[41] = system: HOP-92 NSCLC
[42] = system: SK-OV-3 ovarian
[43] = system: A549 NSCLC
[44] = system: SR leukemia
[45] = system: RXF 393 renal
[46] = system: LOX IMVI melanoma
[47] = system: NCI-H460 lung
[48] = system: BT-549 breast
[49] = system: SNB-75 CNS
[50] = system: NCI-H23 lung
[51] = system: ACHN renal
[52] = system: OVCAR-4 ovarian
[53] = system: M14 melanoma
[54] = system: TK-10 renal
[55] = system: DU-145 prostate
[56] = system: K-562 leukemia

Structure (SMILES): O=C(CCCCN1CCOCC1)Nc1ccc(Cn2nnc3c2C(=O)c2nnn(Cc4ccc(NC(=O)CCCCN5CCOCC5)cc4)c2C3=O)cc1
- GI50 [1]: 1430 nM
- TGI [1]: 28200 nM
- GI50 [2]: 132 nM
- TGI [2]: 355 nM
- GI50 [3]: 629 nM
- TGI [3]: 1550 nM
- GI50 [4]: 141 nM
- TGI [4]: 399 nM
- GI50 [5]: 776 nM
- TGI [5]: 1520 nM
- GI50 [6]: 351 nM
- TGI [6]: 1220 nM
- GI50 [7]: 404 nM
- TGI [7]: 2570 nM
- GI50 [8]: 94.8 nM
- TGI [8]: 170 nM
- GI50 [9]: 745 nM
- TGI [9]: 1490 nM
- GI50 [10]: 329 nM
- TGI [10]: 879 nM
- GI50 [11]: 160 nM
- TGI [11]: 584 nM
- GI50 [12]: 157 nM
- TGI [12]: 687 nM
- GI50 [13]: 113 nM
- TGI [13]: 362 nM
- GI50 [14]: 257 nM
- TGI [14]: 1140 nM
- GI50 [15]: 167 nM
- TGI [15]: 559 nM
- GI50 [16]: 94.6 nM
- TGI [16]: 203 nM
- GI50 [17]: 260 nM
- TGI [17]: 642 nM
- GI50 [18]: 1070 nM
- TGI [18]: 3380 nM
- GI50 [19]: 181 nM
- TGI [19]: 594 nM
- GI50 [20]: 72 nM
- TGI [20]: 163 nM
- GI50 [21]: 1240 nM
- TGI [21]: 17500 nM
- GI50 [22]: 723 nM
- TGI [22]: 1840 nM
- GI50 [23]: 178 nM
- TGI [23]: 837 nM
- GI50 [24]: 381 nM
- TGI [24]: 1050 nM
- GI50 [25]: 71.7 nM
- TGI [25]: 141 nM
- GI50 [26]: 84.9 nM
- TGI [26]: 195 nM
- GI50 [27]: 116 nM
- TGI [27]: 341 nM
- GI50 [28]: 574 nM
- TGI [28]: 1720 nM
- GI50 [29]: 199 nM
- TGI [29]: 50000 nM
- GI50 [30]: 596 nM
- TGI [30]: 2030 nM
- GI50 [31]: 271 nM
- TGI [31]: 2700 nM
- GI50 [32]: 95.9 nM
- TGI [32]: 186 nM
- GI50 [33]: 906 nM
- TGI [33]: 1820 nM
- GI50 [34]: 201 nM
- TGI [34]: 800 nM
- GI50 [35]: 187 nM
- TGI [35]: 566 nM
- GI50 [36]: 1090 nM
- TGI [36]: 13800 nM
- GI50 [37]: 183 nM
- TGI [37]: 788 nM
- GI50 [38]: 669 nM
- TGI [38]: 1460 nM
- GI50 [39]: 107 nM
- TGI [39]: 244 nM
- GI50 [40]: 400 nM
- TGI [40]: 1600 nM
- GI50 [41]: 808 nM
- TGI [41]: 1760 nM
- GI50 [42]: 930 nM
- TGI [42]: 1830 nM
- GI50 [43]: 397 nM
- TGI [43]: 1110 nM
- GI50 [44]: 406 nM
- TGI [44]: 2650 nM
- GI50 [45]: 717 nM
- TGI [45]: 1810 nM
- GI50 [46]: 115 nM
- TGI [46]: 305 nM
- GI50 [47]: 112 nM
- TGI [47]: 530 nM
- GI50 [48]: 722 nM
- TGI [48]: 1410 nM
- GI50 [49]: 234 nM
- TGI [49]: 806 nM
- GI50 [50]: 154 nM
- TGI [50]: 522 nM
- GI50 [51]: 758 nM
- TGI [51]: 1810 nM
- GI50 [52]: 177 nM
- TGI [52]: 769 nM
- GI50 [53]: 264 nM
- TGI [53]: 903 nM
- GI50 [54]: 2020 nM
- TGI [54]: 39600 nM
- GI50 [55]: 459 nM
- TGI [55]: 1050 nM

Structure (SMILES): C[n+]1c2ccccc2c(Nc2ccc(N3CCCCC3)cc2)c2[nH]c3ccccc3c21
- GI50 [1]: 114 nM
- TGI [1]: 1060 nM
- GI50 [2]: 617 nM
- TGI [2]: 1900 nM
- GI50 [3]: 154 nM
- TGI [3]: 324 nM
- GI50 [4]: 417 nM
- TGI [4]: 1070 nM
- GI50 [5]: 459 nM
- TGI [5]: 1930 nM
- GI50 [7]: 154 nM
- TGI [7]: 416 nM
- GI50 [8]: 442 nM
- TGI [8]: 1650 nM
- GI50 [9]: 456 nM
- TGI [9]: 1810 nM
- GI50 [10]: 205 nM
- TGI [10]: 670 nM
- GI50 [11]: 132 nM
- TGI [11]: 361 nM
- GI50 [12]: 28.2 nM
- TGI [12]: 192 nM
- TGI [13]: 90.8 nM
- GI50 [15]: 185 nM
- TGI [15]: 368 nM
- GI50 [16]: 212 nM
- TGI [16]: 1240 nM
- GI50 [17]: 418 nM
- TGI [17]: 1360 nM
- GI50 [18]: 456 nM
- TGI [18]: 1690 nM
- GI50 [19]: 185 nM
- TGI [19]: 619 nM
- GI50 [20]: 340 nM
- TGI [20]: 1530 nM
- GI50 [21]: 144 nM
- TGI [21]: 833 nM
- GI50 [22]: 324 nM
- TGI [22]: 1800 nM
- GI50 [23]: 191 nM
- TGI [23]: 656 nM
- GI50 [24]: 379 nM
- TGI [24]: 1550 nM
- GI50 [25]: 333 nM
- TGI [25]: 1460 nM
- GI50 [26]: 152 nM
- TGI [26]: 524 nM
- GI50 [27]: 194 nM
- TGI [27]: 861 nM
- GI50 [28]: 281 nM
- TGI [28]: 958 nM
- GI50 [29]: 327 nM
- TGI [29]: 1700 nM
- GI50 [30]: 81 nM
- TGI [30]: 262 nM
- GI50 [31]: 83.2 nM
- TGI [31]: 312 nM
- GI50 [32]: 140 nM
- TGI [32]: 344 nM
- GI50 [33]: 234 nM
- TGI [33]: 843 nM
- GI50 [34]: 184 nM
- TGI [34]: 726 nM
- GI50 [35]: 427 nM
- TGI [35]: 1760 nM
- GI50 [36]: 231 nM
- TGI [36]: 705 nM
- GI50 [56]: 155 nM
- TGI [56]: 353 nM
- GI50 [37]: 53.6 nM
- TGI [37]: 1180 nM
- GI50 [38]: 229 nM
- TGI [38]: 1180 nM
- GI50 [39]: 658 nM
- TGI [39]: 2090 nM
- GI50 [40]: 460 nM
- TGI [40]: 1620 nM
- GI50 [41]: 264 nM
- TGI [41]: 1200 nM
- GI50 [42]: 515 nM
- TGI [42]: 1850 nM
- GI50 [43]: 166 nM
- TGI [43]: 549 nM
- GI50 [44]: 3790 nM
- TGI [44]: > 100000 nM
- GI50 [45]: 174 nM
- TGI [45]: 347 nM
- GI50 [46]: 144 nM
- TGI [46]: 340 nM
- GI50 [47]: 152 nM
- TGI [47]: 480 nM
- GI50 [48]: 1160 nM
- TGI [48]: 2450 nM
- GI50 [49]: 522 nM
- TGI [49]: 1910 nM
- GI50 [50]: 349 nM
- TGI [50]: 1680 nM
- GI50 [51]: 223 nM
- TGI [51]: 1010 nM
- GI50 [52]: 326 nM
- TGI [52]: 1230 nM
- GI50 [53]: 346 nM
- TGI [53]: 1470 nM
- GI50 [54]: 1230 nM
- TGI [54]: 2600 nM
- GI50 [55]: 272 nM
- TGI [55]: 802 nM

Structure (SMILES): Cc1nc2cc(Nc3nc(N4CCCCC4)nc(N4CCOCC4)n3)ccc2n1Cc1ccccc1
- GI50 [2]: > 100000 nM
- TGI [2]: > 100000 nM
- GI50 [3]: 2840 nM
- TGI [3]: > 100000 nM
- GI50 [4]: 3150 nM
- TGI [4]: > 100000 nM
- GI50 [8]: 3410 nM
- TGI [8]: > 100000 nM
- GI50 [12]: 2160 nM
- TGI [12]: 5490 nM
- GI50 [18]: 1780 nM
- TGI [18]: 3230 nM
- GI50 [19]: 3980 nM
- TGI [19]: > 100000 nM
- GI50 [22]: 4060 nM
- TGI [22]: > 100000 nM
- GI50 [26]: 3280 nM
- TGI [26]: > 100000 nM
- GI50 [34]: 3190 nM
- TGI [34]: > 100000 nM
- GI50 [36]: 2710 nM
- TGI [36]: > 100000 nM
- GI50 [56]: 6710 nM
- TGI [56]: > 100000 nM
- GI50 [37]: 3600 nM
- TGI [37]: > 100000 nM
- GI50 [38]: 3760 nM
- TGI [38]: > 100000 nM
- GI50 [44]: 3570 nM
- TGI [44]: > 100000 nM
- GI50 [48]: 2510 nM
- TGI [48]: 7100 nM
- GI50 [53]: 3920 nM
- TGI [53]: > 100000 nM
- GI50 [55]: 3480 nM
- TGI [55]: > 100000 nM
